The target in one test is DNMT1 (Homo sapiens, UniProt P26358). In words: DNMT1 biochemical activity, breaklight assay and/or SPA assay. The note with it: binned activity in either the breaklight or the SPA assay; for IC50: read-out: DNMT1 BioChemical (pIC50 category) (converted).
Test [1] relates to erythroid progenitor cells (EPCs). In words: Fetal hemoglobin (HbF) ELISA in day 7 erythroid progenitor cells.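 Further: for fetal hemoglobin induction normalized to vehicle-treated cells.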 It counts as cell-based, human. Particulars: Homo sapiens, Erythroid progenitor cell, HbF ELISA, day 7 EPCs, 5 days; read-out: EPC ELISA (pEC50 category) (converted). The method, boiled down: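 CD34+-derived EPCs, 1,000 cells/well, rhEPO 3 U/mL; Compound A 22-pt series, […]; 5 d, 37° C, 5% CO2. Freeze-thaw lysis, anti-HbF capture + HRP anti-HbF, TMB, OD450. Normalized to DMSO wells.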
For orientation: ELISA stands for enzyme-linked immunosorbent assay.

Each structure is given as a SMILES string. Counter-ions that a name gives are not always drawn.

DNMT1, sequence (P26358 whole entry, looked up): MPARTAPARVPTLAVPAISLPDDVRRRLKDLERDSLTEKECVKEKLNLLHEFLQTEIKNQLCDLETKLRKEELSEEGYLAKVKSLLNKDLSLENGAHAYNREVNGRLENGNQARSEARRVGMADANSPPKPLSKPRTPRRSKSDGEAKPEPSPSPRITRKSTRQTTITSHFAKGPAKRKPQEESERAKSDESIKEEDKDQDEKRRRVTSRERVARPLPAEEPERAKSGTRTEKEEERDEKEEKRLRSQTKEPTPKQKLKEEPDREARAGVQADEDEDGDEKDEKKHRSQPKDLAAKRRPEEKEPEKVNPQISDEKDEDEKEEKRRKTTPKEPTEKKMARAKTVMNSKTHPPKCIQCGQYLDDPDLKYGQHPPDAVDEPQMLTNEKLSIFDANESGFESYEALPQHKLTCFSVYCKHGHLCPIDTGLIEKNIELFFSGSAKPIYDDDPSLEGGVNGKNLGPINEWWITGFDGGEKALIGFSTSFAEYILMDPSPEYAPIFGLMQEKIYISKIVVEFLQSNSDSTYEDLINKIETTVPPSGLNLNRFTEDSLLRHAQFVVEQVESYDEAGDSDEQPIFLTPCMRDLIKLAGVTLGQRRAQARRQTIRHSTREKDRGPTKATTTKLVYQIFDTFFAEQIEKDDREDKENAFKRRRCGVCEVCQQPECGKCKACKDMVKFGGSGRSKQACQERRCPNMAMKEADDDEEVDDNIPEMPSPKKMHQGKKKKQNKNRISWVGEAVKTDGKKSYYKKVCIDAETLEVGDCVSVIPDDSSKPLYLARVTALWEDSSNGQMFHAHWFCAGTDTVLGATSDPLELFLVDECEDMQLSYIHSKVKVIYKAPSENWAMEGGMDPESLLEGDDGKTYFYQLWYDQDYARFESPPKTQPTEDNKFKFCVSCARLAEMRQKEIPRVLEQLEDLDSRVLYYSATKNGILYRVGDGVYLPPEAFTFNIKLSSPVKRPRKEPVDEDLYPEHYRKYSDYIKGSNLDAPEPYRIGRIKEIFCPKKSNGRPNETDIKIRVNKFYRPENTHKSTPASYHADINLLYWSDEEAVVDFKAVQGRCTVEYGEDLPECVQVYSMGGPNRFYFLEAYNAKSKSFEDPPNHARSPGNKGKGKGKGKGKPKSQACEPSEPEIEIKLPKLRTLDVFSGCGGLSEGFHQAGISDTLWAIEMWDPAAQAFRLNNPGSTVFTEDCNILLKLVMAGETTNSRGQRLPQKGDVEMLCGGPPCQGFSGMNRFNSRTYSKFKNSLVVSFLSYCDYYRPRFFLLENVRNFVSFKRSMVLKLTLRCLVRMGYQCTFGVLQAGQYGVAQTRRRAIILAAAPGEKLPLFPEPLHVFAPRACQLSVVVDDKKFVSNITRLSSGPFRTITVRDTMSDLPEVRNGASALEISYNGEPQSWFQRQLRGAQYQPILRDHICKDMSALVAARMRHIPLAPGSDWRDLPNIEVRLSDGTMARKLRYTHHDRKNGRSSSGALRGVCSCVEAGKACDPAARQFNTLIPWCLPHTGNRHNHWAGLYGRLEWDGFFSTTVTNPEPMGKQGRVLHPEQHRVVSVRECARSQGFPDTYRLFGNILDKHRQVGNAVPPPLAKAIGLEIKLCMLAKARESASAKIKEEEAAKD

Regarding `CCc1c(C#N)c(SC(C(N)=O)c2ccccc2)nc(N2CC(F)(CN)C2)c1C#N` (stereo not shown) [Example 688, 2-((6-(3-(aminomethyl)-3-fluoroazetidin-1-yl)-3,5-dicyano-4-ethylpyridin-2-yl)thio)-2-phenylacetamide], at DNMT1, the “DNMT1 BioChemical (pIC50 category)” value is listed as “D (Category D: ≥6.5)”. Further, in test [1], the EC50 was 1000 to 31600 nM.
On to `CCc1c(C#N)c(SC(C(N)=O)c2ccccc2)nc(N2CC(O)C2)c1C#N` (stereo not shown) [Example 146, 2-((3,5-Dicyano-4-ethyl-6-(3-hydroxyazetidin-1-yl)pyridin-2-yl)thio)-2-phenylacetamide], for which the “DNMT1 BioChemical (pIC50 category)” value at DNMT1 is reported as “D (Category D: ≥6.5)”. The EC50 in test [1] is 316 to 1000 nM.
For the compound `CCc1c(C#N)c(SC(C(N)=O)c2ccccc2)nc(N2CCC(NCC(=O)O)CC2)c1C#N` (stereo not shown) [Example 497, 2-((1-(6-((2-amino-2-oxo-1-phenylethyl)thio)-3,5-dicyano-4-ethylpyridin-2-yl)piperidin-4-yl)amino)acetic acid], the “DNMT1 BioChemical (pIC50 category)” value at DNMT1 is given as “D (Category D: ≥6.5)”. Besides, in test [1], the EC50 was 1000 to 31600 nM.
Consider `CCc1c(C#N)c(S[C@H](C(N)=O)c2ccccc2)nc(N2C[C@H](O)CO2)c1C#N` (single isomer, unassigned) [Example 694], for which the “DNMT1 BioChemical (pIC50 category)” value at DNMT1 is listed as “D (Category D: ≥6.5)”. Moreover, the EC50 in test [1] was 1000 to 31600 nM.
Regarding `CCc1c(C#N)c(SC(C(N)=O)c2ccccc2)nc(N2CCN(C(C)(C)CO)CC2)c1C#N` (stereo not shown) [Example 189], the IC50 at DNMT1 was 316 to 1000 nM. For the same compound, the EC50 in test [1] is 316 to 1000 nM.
For the compound `CCc1c(C#N)c(SC(C(N)=O)c2ccccc2)nc(N2CCC(CN3CCN(C)CC3)CC2)c1C#N` (stereo not shown) [Example 469, 2-((3,5-dicyano-4-ethyl-6-(4-((4-methylpiperazin-1-yl)methyl)piperidin-1-yl)pyridin-2-yl)thio)-2-phenylacetamide], the “DNMT1 BioChemical (pIC50 category)” value on DNMT1 is “D (Category D: ≥6.5)”. The EC50 in test [1] was less than 316 nM.
Consider `CN1CCCN(c2nc(SC(C(N)=O)c3ccccc3)c(C#N)c(-c3ccco3)c2C#N)CC1` (stereo not shown) [Example 135, 2-((3,5-dicyano-4-(furan-2-yl)-6-(4-methyl-1,4-diazepan-1-yl)pyridin-2-yl)thio)-2-phenylacetamide], for which the IC50 at DNMT1 is 316 to 1000 nM. For the same compound, the EC50 in test [1] is 1000 to 31600 nM.
Take `CCc1c(C#N)c(SC(C(N)=O)c2ccccc2)nc(N2CCC(NC(=O)C3(N)CCOCC3)CC2)c1C#N` (stereo not shown) [Example 140, 4-Amino-N-(1-(6-((2-amino-2-oxo-1-phenylethyl)thio)-3,5-dicyano-4-ethylpyridin-2-yl)piperidin-4-yl)tetrahydro-2H-pyran-4-carboxamide, Trifluoroacetic Acid Salt]: the “DNMT1 BioChemical (pIC50 category)” value on DNMT1 is given as “D (Category D: ≥6.5)”. Moreover, in test [1], the EC50 was less than 316 nM.
As to `CCc1c(C#N)c(SC(C(N)=O)c2ccccc2)nc(N(C)CCO)c1C#N` (stereo not shown) [Example 147, 2-(3,5-Dicyano-4-ethyl-6-((2-hydroxyethyl)(methyl)amino)pyridin-2-ylthio)-2-phenylacetamide], the IC50 on DNMT1 is 316 to 1000 nM. Moreover, the EC50 in test [1] was 316 to 1000 nM.
Consider `CCc1c(C#N)c(SC(C(N)=O)c2ccccc2)nc(N2CCO[C@@H](CNC(=O)CN)C2)c1C#N` (stereo partly drawn) [Example 598, 2-amino-N-(((2S)-4-(6-((2-amino-2-oxo-1-phenylethyl)thio)-3,5-dicyano-4-ethylpyridin-2-yl)morpholin-2-yl)methyl)acetamide], for which the “DNMT1 BioChemical (pIC50 category)” value at DNMT1 was “D (Category D: ≥6.5)”. The EC50 in test [1] was 1000 to 31600 nM.
For the compound `CCc1c(C#N)c(SC(C(N)=O)c2ccccc2)nc(N(C)CCN2CCC[C@@H]2C)c1C#N` (stereo partly drawn) [Example 463, 2-((3,5-dicyano-4-ethyl-6-(methyl(2-((S)-2-methylpyrrolidin-1-yl)ethyl)amino)pyridin-2-yl)thio)-2-phenylacetamide], the “DNMT1 BioChemical (pIC50 category)” value on DNMT1 is recorded as “D (Category D: ≥6.5)”. In addition, in test [1], the EC50 was less than 316 nM.

The record behind these values is patent US10975056B2 (GlaxoSmithKline Intellectual Property Development Limited, priority 2016, dated 2021).
